From patent publication US6727401B1, “Pressure sensitive adhesive matrix patch for the treatment of onychomycosis” (Watson Pharmaceuticals, Inc., priority 1998, dated 2004)
Values belong to the compound of their own block, whether it stands above or below them.

What was measured:
[1] = In vitro human cadaver nail flux study, modified Franz cells, matrix patch; assay type: in vitro ADME
Protocol: The cumulative amount of drug permeated per unit area at any time t(Qt, μg/cm^2) was determined as follows: [formula]
where Cn is the concentration (μg/ml) of the drug in the receiver sample for the corresponding sample time, V is the volume of fluid in the receiver chamber (˜6.3 cm^3), and A is the diffusion area of the cell (0.64 cm^2).
(§1) In vitro human cadaver nail flux studies were conducted using modified Franz non-jacketed permeation cells. The temperature of the nail surface was maintained at 32° C. by placing the cells in a circulating water bath positioned over a stirring module. Human finger nail or toe nail was stored under frozen conditions in 0.02% (w/v) sodium azide solution. Nails that were greater than 1 cm^2 in area were used for the flux studies. Nails with dorsal side facing the donor compartment were sandwiched between two layers of a closed cell polyethylene foam film. Annular ring of 2.38 cm outer diameter and 0.95 cm inner diameter was cut from the backing film. The area of the donut hole (0.97 cm^2) is large enough to provide complete contact with the receiver media. The purpose of the foam backing film was to prevent any leakage of receiver medium from the cell assembly. The nails were allowed to hydrate at 32° C. overnight with 0.02% (w/v) sodium azide solution in the receiver compartment. The following morning, 0.71 cm^2 circular matrix patches were laminated onto the dorsal side of the nail. Each nail matrix sandwich was then loaded between the donor and receiver compartments of a diffusion cell, with the ventral side of nail facing the receiver compartment, and clamped in place.

[2] = Amount of drug retained in the nail after matrix patch application; assay type: in vitro ADME; conditions: human, 48 hours
Protocol: as §1
The remaining portion of nail was also dried, weighed, extracted in dimethyl sulfoxide and analyzed for drug content.

[3] = In vitro human cadaver skin flux study, modified Franz cells; assay type: in vitro ADME
Protocol: In vitro human cadaver skin flux studies were conducted using modified Franz non-jacketed permeation cells. The temperature of the skin surface was maintained at 32° C. by placing the cells in a circulating water bath positioned over a stirring module. The epidermal membrane was separated from the dermatomed human cadaver skin by the heat-separation method of Kligman and Christopher (Arch. Dermatol. 88:702 (1963)) involving the exposure of the full thickness skin to 60° C. heat for 60 seconds, after which time the stratum corneum and the epidermis (epidermal membrane) were gently peeled off the dermis.
For a matrix skin flux study, the heat separated human epidermal membrane was cut into rectangular strips. The matrix was cut into 0.71 cm^2 circular discs. […] At predetermined sampling intervals, the entire contents of the receiver compartment were collected for drug quantitation and the receiver compartment was filled with fresh receiver solution, taking care to eliminate any air bubbles at the skin/solution interface.
For the topical gel study, included for illustration purposes, a thin film of gel approximately 10 μl/cm^2, was applied to the stratum-corneum surface of a hydrated piece of human cadaver skin. […] At predetermined sampling intervals, the entire contents of the receiver compartment were collected for drug quantitation. […]

[4] = Amount of drug retained in the skin after matrix patch application; conditions: patch at 24 hours versus day 1 after oral administration
[5] = long term, high dose systemic therapy, cited from earlier work

permeation across the nail [1]: no permeation
amount of drug retained in the nail per unit dry weight of nail [2]: greater than 500 μg/g
skin flux without an enhancer [3]: below the detection limit
Compound: Clc1ccccc1C(c1ccccc1)(c1ccccc1)n1ccnc1 [clotrimazole]

permeation across the nail [1]: no permeation
times higher amount of drug in the nail after patch application compared to reported oral administration [2]: 100-1000 times
Compound: CN(C/C=C/C#CC(C)(C)C)Cc1cccc2ccccc12 [terbinafine]

Compound: OC(Cn1cncn1)(Cn1cncn1)c1ccc(F)cc1F [fluconazole]
permeation across the nail [1]: no permeation
times higher amount of drug in the nail after patch application compared to reported oral administration [2]: 1000-2000 times
times higher amount of fluconazole in the skin compared to oral administration [4]: 500-600 times

Compound: CC(=O)N1CCN(c2ccc(OCC3COC(Cn4ccnc4)(c4ccc(Cl)cc4Cl)O3)cc2)CC1 (centres unmarked) [ketoconazole]
effect of the presence of an enhancer on skin flux ([3]; enhancer lauramide-DEA, acrylic pressure sensitive adhesive): doubles the flux
reported liver toxicity [5]: liver toxicity effects
reported effect on testosterone levels in blood ([5]; due to adverse effects on the testes): reduces testosterone levels in blood
